Assay results taken from patent publication US20210405025A1, “IDENTIFYING COMPOUNDS FOR TREATING CANCER AND USE THEREOF” (THE UAB RESEARCH FOUNDATION, priority 2018, published 2021).
Counter-ions that a name gives are not always drawn. Like-named read-outs stand apart in the source and are kept apart here.

What was measured:
relapsed AML cells = assay: Drug sensitivity assay, 1,536-well, 3-day culture with individual approved drugs at 10 μM, viability by alamarBlue; format: cell-based, human
How it was run: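 Three-day exposure of primary AML cells to individual drugs in 1,536-well format, viability read as percent live cells. Cells were thawed, cultured overnight, sorted by FACS for viable blasts and plated at 4,000-4,500 cells/5 μL in cytokine-supplemented IMDM/BIT medium.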

AML patient samples = assay: 10-point dose-response drug screen of statins against AML patient samples, 3-day drug sensitivity assay; format: cell-based, human; conditions: Homo sapiens, 72 h, 3-day assay
Protocol: Drug sensitivity assays were performed using a 1,536-well platform where all cells and reagents were deposited in wells using an acoustic liquid handling unit that is highly accurate for dispensing of nanoliter volumes of liquid. […] After dispensing the cells into the wells, an independent drug at a known concentration is added to each well and incubated with the cells. After three days, the percentage of live cells in each well is determined to assess the killing efficiency of each compound. […] Cell viability assays are known to those of skill in the art. See, for example, Pemovska et al., Individualized systems medicine strategy to tailor treatments for patients with chemorefractory acute myeloid leukemia. Cancer Discovery 3:1416-1429, 2013; Pabst et al., Identification of small molecules that support human leukemia stem cell activity ex vivo. Nature Methods 11:436-442, 2014; Baccelli et al., A novel approach for the identification of efficient combination therapies in primary human acute myeloid leukemia specimens. Blood Cancer Journal 7:e529, 2017. In studies described herein, the 1,536-well format was utilized, which allowed for use of four times fewer cells as well as less drug and media components due to the small assay volume of 5 microliters. […] Other compounds like CellTiter-Glo (Promega, Madison, Wis.) are equally appropriate reagents for determining cell viability.
Conditions for the drug screening assays were as described in Pabst et al., Identification of small molecules that support human leukemia stem cell activity ex vivo, Nature Methods 11:436-442, 2014). Using this protocol, cells were cultured in Iscove's Modified Dulbecco's Medium (IMDM), 15% BIT (bovine serum albumin, insulin, transferrin; Stem Cell Technologies 09500 (Vancouver, Calif.)), 100 ng/ml SCF (Shenandoah 100-04 (Warwick, Pa.)), 50 ng/ml FLT3L (Shenandoah 100-21), 20 ng/ml IL-3 (Shenandoah 100-80), 20 ng/ml G-CSF (Shenandoah 100-72), 10^-4 M β-mercaptoethanol, gentamicin (50 μg/ml) and ciprofloxacin (10 μg/ml).
Cells were removed from liquid nitrogen and placed in a 37° C. bath, just until thawed. For 1,536-well screens utilizing 6,000 wells about 100 million cells were thawed. The volume was doubled with pre-warmed culture media and placed on ice for about one to two minutes. The cells were brought to a final volume of about 8 to 10 mL before spinning down at 1,100 rpm for 5 min at 10° C. The pelleted cells were resuspended in 10 mL of culture media and plated in a tissue-culture treated T75 flask at a density of 1 to 2 million cells/ml. The cells were cultured overnight prior to fluorescence-activated cell sorting of viable cells on the following day.
After cells were cultured overnight, a cell scraper was used to remove any cells that adhered to the plastic. The cells were gently pipetted up and down to break up aggregates. Then, the entire volume was transferred to a 50 mL conical tube through a 70 micron cell strainer to remove cell clumps. The T75 flask was rinsed and scraped with about 10 mL HBSS and transferred to the same 50 mL conical tube through the strainer. The harvested cells were spun down at 1,100 rpm for 5 min at 10° C. The cells were then resuspendd in about 300-500 microliters FACS buffer (HBSS+2% FBS+1× propidium iodide) and transferred to a FACS tube. The tube was placed on ice and viable cells that are forward- and side-scatter gated on viable myeloid blasts were sorted by FACS (the scatter gate should exclude small lymphocytes, large myeloid cells, and debris). After sorting the required number of viable cells, the cells were spun down at 1,100 rpm for 5 min at 10° C. and subsequently resuspended at 4,000-4,500 cells per 5 microliter volume of complete culture media with growth factors and penicillin/streptomycin.

[1] = number of relapsed AML cases out of 18 tested with >70% cell death, 10 μM, 3-day culture
[2] = patient sample AML 285, read-out: IC50 AML 285
[3] = patient sample AML 290, read-out: IC50 AML 290
[4] = patient sample AML 297, read-out: IC50 AML 297
[5] = patient sample AML 299, read-out: IC50 AML 299
[6] = patient sample AML 307, read-out: IC50 AML 307
[7] = patient sample AML 330, read-out: IC50 AML 330
[8] = patient sample AML 339, read-out: IC50 AML 339
[9] = patient sample AML 340, read-out: IC50 AML 340
[10] = patient sample AML 343, read-out: IC50 AML 343

Molecule	#Cases >70% cell death (relapsed AML cells; [1])	further results
CCC(C)(C)C(=O)O[C@H]1C[C@@H](C)C=C2C=C[C@H](C)[C@H](CC[C@@H]3C[C@@H](O)CC(=O)O3)[C@H]21 [SIMVASTATIN]	6	IC50 (AML patient samples; [2]): > 10 µM; IC50 (AML patient samples; [3]): > 10 µM; IC50 (AML patient samples; [4]): 6.94 µM; IC50 (AML patient samples; [5]): > 10 µM; IC50 (AML patient samples; [6]): > 10 µM; IC50 (AML patient samples; [7]): > 10 µM; IC50 (AML patient samples; [8]): 5.08 µM; IC50 (AML patient samples; [9]): > 10 µM; IC50 (AML patient samples; [10]): > 10 µM
CC[C@H](C)C(=O)O[C@H]1C[C@H](O)C=C2C=C[C@H](C)[C@H](CC[C@@H](O)C[C@@H](O)CC(=O)O)[C@H]21 [PRAVASTATIN]	1	IC50 (AML patient samples; patient sample AML 280, read-out: IC50 AML 280): > 10 µM; IC50 (AML patient samples; [2]): > 10 µM; IC50 (AML patient samples; [3]): > 10 µM; IC50 (AML patient samples; [4]): > 10 µM; IC50 (AML patient samples; [5]): > 10 µM; IC50 (AML patient samples; [6]): > 10 µM; IC50 (AML patient samples; [7]): > 10 µM; IC50 (AML patient samples; [8]): > 10 µM; IC50 (AML patient samples; [9]): > 10 µM; IC50 (AML patient samples; [10]): > 10 µM
CC[C@H]1OC(=O)C[C@@H](O)[C@H](C)[C@@H](O[C@@H]2O[C@H](C)[C@@H](O)[C@H](N(C)C)[C@H]2O)[C@@H](CCN2C[C@H](C)C[C@H](C)C2)C[C@@H](C)C(=O)/C=C/C(C)=C/[C@@H]1CO[C@@H]1O[C@H](C)[C@@H](O)[C@@H](OC)[C@H]1OC [TILMICOSIN]	1	–
Nc1nc(Cl)nc2c1ncn2[C@@H]1O[C@H](CO)[C@@H](O)[C@@H]1F [CLOFARABINE]	18	–
CN1CCC[C@@H]1CCO[C@](C)(c1ccccc1)c1ccc(Cl)cc1 [CLEMASTINE]	1	–
CC(C)CC(=O)Nc1n[nH]c2c1CN(C(=O)C1CCN(C)CC1)C2(C)C [PHA-793887]	16	–
OC(CN1CCC(Cc2ccc(F)cc2)CC1)c1ccc(Cl)cc1 (centres unmarked) [ELIPRODIL]	1	–
CCCCCCCCCCCCCCCC[n+]1ccccc1	–	#Cases >70% cell death (relapsed AML cells): 18
Cc1ccc2c(Br)cc(Br)c(OC(=O)c3ccccc3)c2n1 [BROXALDINE]	2	–
GRAMICIDIN [GRAMICIDIN (GRAMICIDIN A SHOWN)]	9	–
NC[C@H]1O[C@H](O[C@H]2[C@H](O)[C@@H](O[C@H]3O[C@H](CO)[C@@H](O)[C@H](N)[C@H]3O)[C@H](N)C[C@@H]2N)[C@H](N)C[C@@H]1O [TOBRAMYCIN]	1	–
O=C(NCC1CCCCN1)c1cc(OCC(F)(F)F)ccc1OCC(F)(F)F (centres unmarked)	1	–
C[C@H](CCC(=O)O)[C@H]1CC[C@H]2[C@@H]3[C@@H](O)C[C@@H]4C[C@H](O)CC[C@]4(C)[C@H]3CC[C@]12C [URSODIOL]	2	–
COc1ccc2nc3cc(Cl)ccc3c(Nc3cc(CN4CCCC4)c(O)c(CN4CCCC4)c3)c2n1.O=P(O)(O)O.O=P(O)(O)O.O=P(O)(O)O.O=P(O)(O)O [PYRONARIDINE TETRAPHOSPHATE]	9	–
Clc1ccc(C(Cn2ccnc2)OCc2ccsc2Cl)c(Cl)c1 (centres unmarked) [TIOCONAZOLE]	1	–
CCN(CCCc1ccccc1)CCCc1ccccc1 [ALVERINE CITRATE]	4	–
Nc1ncnc2c1ncn2CCOCP(=O)(O)O [ADEFOVIR]	18	–
O=C1NCC2(CCN(CCc3ccccc3)CC2)O1 [FENSPIRIDE]	3	–
Cc1ccc(C(=O)Nc2ccc(CN3CCN(C)CC3)c(C(F)(F)F)c2)cc1C#Cc1cnc2cccnn12 [PONATINIB]	18	–
CCCCOc1ccc(OCCCN2CCOCC2)cc1 [PRAMOXINE]	1	–

Molecule	#Cases >70% cell death (relapsed AML cells; [1])	further results
CCN(CC)CCNc1ccc(CO)c2sc3ccccc3c(=O)c12 [HYCANTHONE]	9	–
C#C[C@]1(O)CC[C@H]2[C@@H]3CCc4cc(O)ccc4[C@H]3CC[C@@]21C [ETHINYL ESTRADIOL]	1	–
BLEOMYCIN	2	–
[H]/N=C(\N/C(=N/[H])NCCCCCCNC(=N)NC(=N)Nc1ccc(Cl)cc1)Nc1ccc(Cl)cc1 [CHLORHEXIDINE DIHYDROCHLORIDE]	11	–
O=c1[nH]c2ccccc2n1C1CCN(CCCC(c2ccc(F)cc2)c2ccc(F)cc2)CC1 [PIMOZIDE]	1	–
C[C@]12CC[C@@H]3c4ccc(OS(=O)(=O)O)cc4CC[C@H]3[C@@H]1CCC2=O [ESTROPIPATE]	1	–
CNC(=O)c1cc(Oc2ccc(NC(=O)Nc3ccc(Cl)c(C(F)(F)F)c3)c(F)c2)ccn1 [REGORAFENIB]	9	–
CNC(=O)c1ccccc1Sc1ccc2c(/C=C/c3ccccn3)n[nH]c2c1 [AXITINIB]	9	–
CCN(CC)CCOc1ccc2c(c1)C(=O)c1cc(OCCN(CC)CC)ccc1-2 [TILORONE]	10	–
C[C@@H]1C[C@@H]([C@H](O)CC2CC(=O)NC(=O)C2)C(=O)[C@@H](C)C1 [CYCLOHEXIMIDE]	18	–
CC(=O)[C@H]1CC[C@H]2[C@@H]3C=CC4=CC(=O)CC[C@@]4(C)[C@@H]3CC[C@]12C [DYDROGESTERONE]	1	–
Clc1ccc(C(Cn2ccnc2)OCc2csc3c(Cl)cccc23)c(Cl)c1 (centres unmarked) [SERTACONAZOLE]	2	–
COc1cc([C@@H]2c3cc4c(cc3[C@@H](O[C@@H]3O[C@@H]5CO[C@@H](c6cccs6)O[C@H]5[C@H](O)[C@H]3O)[C@H]3COC(=O)[C@H]23)OCO4)cc(OC)c1O [TENIPOSIDE]	10	–
CC(=O)OC[C@H]1O[C@@H]([S-])[C@H](OC(C)=O)[C@@H](OC(C)=O)[C@@H]1OC(C)=O.CCP(CC)CC.[Au+] [AURANOFIN]	17	–
CCCCCCCCCCC[C@@H](C[C@@H]1OC(=O)[C@H]1CCCCCC)OC(=O)[C@H](CC(C)C)NC=O [ORLISTAT]	9	–
CC1(C)O[C@@H]2C[C@H]3[C@@H]4C[C@H](F)C5=CC(=O)CC[C@]5(C)[C@H]4[C@@H](O)C[C@]3(C)[C@]2(C(=O)CO)O1 [FLURANDRENOLIDE]	18	–
Cn1cnc([N+](=O)[O-])c1Sc1ncnc2nc[nH]c12 [AZATHIOPRINE]	10	–
C#C[C@]1(O)CC[C@H]2[C@@H]3[C@H](C)CC4=C(CCC(=O)C4)[C@H]3CC[C@@]21C [TIBOLONE]	1	–
CC(=O)Nc1ccc(C(=O)Nc2ccccc2N)cc1 [TACEDINALINE]	4	–
Cn1nnc2c(C(N)=O)ncn2c1=O [TEMOZOLAMIDE]	14	–
